A short description of data set [1]: Toxic effect after oral administration (6400 mg/kg) was determined in mice; No effect. It counts as toxicity, organism-based. Particulars: mouse, in vivo; call rule not given here.
Data set [2] can be described thus: Lethal dose after intraperitoneal administration in mice. It is filed as toxicity. Particulars: mouse, in vivo, ip.
The test system of data set [3] is Bacillus subtilis. The experiment in a line: Antibacterial activity against Bacillus subtilis at a concentration of 40 ug/mL. It is filed as functional.
Data set [4] concerns Klebsiella pneumoniae. The experiment in a line: Antibacterial activity against Klebsiella pneumoniae at a concentration of 80 ug/mL. It counts as functional.
The subject of data set [5] is Escherichia coli. The experiment in a line: Antibacterial activity against Escherichia coli at a concentration of 20 ug/mL. It is filed as functional.
Data set [6] relates to Escherichia coli. The experiment in a line: Antibacterial activity against Escherichia coli at a concentration of 40 ug/mL. It is filed as functional.
Data set [7] has as its system Bacillus subtilis. The experiment in a line: Antibacterial activity against Bacillus subtilis at a concentration of 80 ug/mL. It is filed as functional.
The test system of data set [8] is Escherichia coli. The experiment in a line: Antibacterial activity against Escherichia coli at a concentration of 10 ug/mL. It is filed as functional.
Data set [9] relates to Escherichia coli. The experiment in a line: Antibacterial activity against Escherichia coli at a concentration of 80 ug/mL. It counts as functional.
The test system of data set [10] is Bacillus subtilis. The experiment in a line: Antibacterial activity against Bacillus subtilis at a concentration of 120 ug/mL. It counts as functional.
Data set [11] relates to Klebsiella pneumoniae. The experiment in a line: Antibacterial activity against Klebsiella pneumoniae at a concentration of 120 ug/mL. It is filed as functional.
Data set [12] relates to Klebsiella pneumoniae. The experiment in a line: Antibacterial activity against Klebsiella pneumoniae at a concentration of 40 ug/mL. It counts as functional.
In data set [13] the test system is Klebsiella pneumoniae. The experiment in a line: Antibacterial activity against Klebsiella pneumoniae at a concentration of 160 ug/mL. It is filed as functional.
For data set [14], the system named is Bacillus subtilis. The experiment in a line: Antibacterial activity against Bacillus subtilis at a concentration of 160 ug/mL. It is filed as functional.

`Cc1cc(NS(=O)(=O)c2ccc(NCNC(=O)c3ccc(NC(=O)c4cccnc4)cc3)cc2)no1`: the Toxic effect result in [1] is recorded as “Not Active”. This compound also gave a Lethal dose in data set [2] of 1000 mg/kg. The Zone of inhibition in the data set with Bacillus subtilis [3] turned out to be 14.1 mm; with Klebsiella pneumoniae [4], 14.7 mm; with Escherichia coli [5], 11.5 mm; with Escherichia coli [6], 11.8 mm; with Bacillus subtilis [7], 18.6 mm; in the data set on Escherichia coli [8] it was 11.3 mm. Moreover, the Zone of inhibition in the data set on Escherichia coli [9] came to 13.4 mm; with Bacillus subtilis [10] it was 20.7 mm; in the data set with Klebsiella pneumoniae [11], 14.4 mm; with Klebsiella pneumoniae [12], 12.5 mm; in the data set on Klebsiella pneumoniae [13], 13.7 mm; in the data set with Bacillus subtilis [14] it was 23.5 mm.

With `Cc1cc(C)nc(NS(=O)(=O)c2ccc(NCNC(=O)c3ccc(NC(=O)c4cccnc4)cc3)cc2)n1`, in [1], the Toxic effect entry was “Not Active”. The Lethal dose in data set [2] was 1000 mg/kg. The Zone of inhibition in the data set with Bacillus subtilis [3] stood at 6 mm; in the data set with Escherichia coli [5], 13.9 mm; with Escherichia coli [6] it was 13.7 mm; with Bacillus subtilis [7] it was 11.2 mm; in the data set with Escherichia coli [8], 11.4 mm; with Escherichia coli [9] it was 14.1 mm. In addition, the results for the Zone of inhibition with Bacillus subtilis [10] and with Bacillus subtilis [14] were 13.6 mm and 17.6 mm, respectively.

`NS(=O)(=O)c1ccc(NCNC(=O)c2ccc(NC(=O)c3cccnc3)cc2)cc1`: the Zone of inhibition with Klebsiella pneumoniae [4] worked out at 12 mm; in the data set with Escherichia coli [5], 12.7 mm; in the data set with Escherichia coli [6], 13.2 mm; with Escherichia coli [8] it was 13.1 mm; in the data set with Escherichia coli [9], 13.2 mm; with Klebsiella pneumoniae [11], 13.7 mm. Also, the Zone of inhibition in the data set on Klebsiella pneumoniae [12] turned out to be 11.1 mm; with Klebsiella pneumoniae [13], 21.4 mm.

Consider `Cc1cc(NS(=O)(=O)c2ccc(N)cc2)no1` [SULFAMETHOXAZOLE], for which the Zone of inhibition in the data set with Bacillus subtilis [3] stood at 22.8 mm; in the data set on Klebsiella pneumoniae [4] it was 22.4 mm; with Escherichia coli [5] it was 22.9 mm; with Escherichia coli [6] it was 23.2 mm; in the data set on Bacillus subtilis [7], 25.4 mm; with Escherichia coli [8], 19.6 mm. Besides, the Zone of inhibition was determined as 23.6 mm with Escherichia coli [9]; 27.4 mm in the data set with Bacillus subtilis [10]; 26.4 mm in the data set on Klebsiella pneumoniae [11]; 11.6 mm in the data set on Klebsiella pneumoniae [12]; 6 mm in the data set on Klebsiella pneumoniae [13]; 27.9 mm with Bacillus subtilis [14].

For `Cc1nnc(NS(=O)(=O)c2ccc(N)cc2)s1` [SULFAMETHIZOLE], the Zone of inhibition in the data set on Escherichia coli [5] turned out to be 17.4 mm; with Escherichia coli [6], 22.2 mm; with Escherichia coli [8], 16.2 mm; with Escherichia coli [9], 25.5 mm.

Take `N=C(N)NS(=O)(=O)c1ccc(NCNC(=O)c2ccc(NC(=O)c3cccnc3)cc2)cc1`: in data set [1], the Toxic effect entry is on record as “Not Active”. In data set [2], this compound yielded a Lethal dose of 1000 mg/kg. The Zone of inhibition with Escherichia coli [5] was 11.4 mm; in the data set with Escherichia coli [6], 11 mm; in the data set with Escherichia coli [8], 10.9 mm; in the data set on Escherichia coli [9], 11.7 mm.

On to `Cc1nnc(NS(=O)(=O)c2ccc(NCNC(=O)c3ccc(NC(=O)c4cccnc4)cc3)cc2)s1`, for which, in data set [1], the Toxic effect entry was “Not Active”. In [2], this compound displayed a Lethal dose of 1000 mg/kg. Moreover, the Zone of inhibition came to 14.9 mm in the data set on Escherichia coli [5], 14.4 mm in the data set with Escherichia coli [6], 12.4 mm in the data set with Escherichia coli [8] and 15 mm in the data set with Escherichia coli [9].

In the case of `O=C(NCNc1ccc(S(=O)(=O)Nc2ncccn2)cc1)c1ccc(NC(=O)c2cccnc2)cc1`, in [1], the Toxic effect entry is listed as “Not Active”. Further, in data set [2], the Lethal dose was 1000 mg/kg. Further, the Zone of inhibition in the data set with Bacillus subtilis [3] is 15.4 mm; in the data set on Klebsiella pneumoniae [4] it was 18.3 mm; with Escherichia coli [5] it was 10.6 mm; with Escherichia coli [6] it was 13.7 mm; in the data set with Bacillus subtilis [7], 20.4 mm; in the data set on Escherichia coli [8], 10.4 mm. Moreover, the Zone of inhibition stood at 18.7 mm in the data set with Escherichia coli [9]; 22.9 mm in the data set with Bacillus subtilis [10]; 19.2 mm with Klebsiella pneumoniae [11]; 18.9 mm with Klebsiella pneumoniae [12]; 20.9 mm in the data set on Klebsiella pneumoniae [13]; 25.3 mm in the data set on Bacillus subtilis [14].

In the case of `Nc1ccc(S(N)(=O)=O)cc1` [SULFANILAMIDE], the Zone of inhibition stood at 22.3 mm in the data set on Escherichia coli [5], 22.8 mm with Escherichia coli [6], 20.4 mm in the data set on Escherichia coli [8] and 25.4 mm with Escherichia coli [9].

Take `Cc1cc(C)nc(NS(=O)(=O)c2ccc(N)cc2)n1` [SULFAMETHAZINE]: the Zone of inhibition was 15.4 mm in the data set on Bacillus subtilis [3]; 16.9 mm in the data set on Escherichia coli [5]; 18.8 mm with Escherichia coli [6]; 19.9 mm in the data set on Bacillus subtilis [7]; 15.1 mm with Escherichia coli [8]; 18.5 mm with Escherichia coli [9]. The results for the Zone of inhibition with Bacillus subtilis [10] and with Bacillus subtilis [14] were 21.7 mm and 22 mm, respectively.

Take `Nc1ccc(S(=O)(=O)Nc2ncccn2)cc1` [SULFADIAZINE]: the Zone of inhibition in the data set with Bacillus subtilis [3] turned out to be 20.8 mm; in the data set with Klebsiella pneumoniae [4] it was 29.2 mm; in the data set with Escherichia coli [5], 17.2 mm; in the data set on Escherichia coli [6] it was 22.2 mm; in the data set with Bacillus subtilis [7], 27.2 mm; in the data set with Escherichia coli [8], 9.7 mm. Further, the Zone of inhibition amounted to 25.5 mm with Escherichia coli [9]; 26.3 mm with Bacillus subtilis [10]; 29.5 mm with Klebsiella pneumoniae [11]; 27 mm in the data set on Klebsiella pneumoniae [12]; 25.6 mm in the data set on Klebsiella pneumoniae [13]; 26.9 mm with Bacillus subtilis [14].

These data come from ChEMBL document CHEMBL1136322, “QSAR study on antibacterial activity of sulphonamides and derived Mannich bases” (Bioorg Med Chem Lett, 2003).
